These results are taken from patent US20240151732A1, “EX VIVO METHOD FOR ANALYSING A TISSUE SAMPLE USING PROTEOMIC PROFILE MATCHING, AND ITS USE FOR THE DIAGNOSIS, PROGNOSIS OF PATHOLOGIES AND FOR PREDICTING RESPONSE TO TREATMENTS” (Université de Bordeaux, priority 2021, published 2024).

Assay [1] concerns advanced HCC. Particulars: phase III study, first line; Kudo et al. [10]; cited from earlier work.
Assay [2] relates to HCC cells. The following applies: in vitro and in vivo; Xu et al. [23]; cited from earlier work.
Assay [3] deals with HUH7 cells. Kind of assay: growth of HUH7 cells. The assay is classed as cell-based. The following applies: in our hands.
Assay [4] concerns advanced HCC. Particulars: SHARP test; proportion of good responders to sorafenib; cited from earlier work.

For the compound `COc1cc2nccc(Oc3ccc(NC(=O)NC4CC4)c(Cl)c3)c2cc1C(N)=O` [lenvatinib], the “overall survival compared to sorafenib” value in assay [1] was “non-inferiority”.

In the case of `Cc1ncc(C[n+]2csc(CCO)c2C)c(=O)[nH]1` [oxythiamine], the “efficacy in HCC cells” value in assay [2] was “effective”. In addition, in assay [3], the “effect on the growth of HUH7 cells” value was “did not confirm the effect”.

As for `CNC(=O)c1cc(Oc2ccc(NC(=O)Nc3ccc(Cl)c(C(F)(F)F)c3)cc2)ccn1` [sorafenib], the objective response in assay [4] is 2%.
